The source of these data is patent US11530237B2, “Compositions and methods for treating CNS disorders” (Sage Therapeutics, Inc., priority 2014, dated 2022).

The assay concerns the target α1β2γ2 GABAA receptors (Homo sapiens (Human), UniProt P14867+P47870). Put plainly: Patch clamp electrophysiology (QPatch) of recombinant α1β2γ2 GABAA receptors in LTK cells. The format is cell-based. To be noted: 10 μM test article, GABA EC20 = 2 μM, read-out: GABA (α1β2γ2) Qpatch in Ltk, % efficacy at 10 μM. As to the method:
Cellular electrophysiology is used to measure the pharmacological properties of our GABAA receptor modulators in heterologous cell systems. Each compound is tested for its ability to affect GABA mediated currents at a suhmaximal agonist dose (GABA EC20=2 μM). LTK cells are stably transfected with the α1β2γ2 subunits of the GABA receptor and CHO cells are transiently transfected with the α4β3δ subunits via the Lipofecatamine method. Cells were passaged at a confluence of about 50-80% and then seeded onto 35 mm sterile culture dishes containing 2 ml culture complete medium without antibiotics or antimycotics. Confluent clusters of cells are electrically coupled (Pritchett et al., Science, 1988, 242, 1306-1308). Because responses in distant cells are not adequately voltage clamped and because of uncertainties about the extent of coupling (Verdoom et al., Neuron 1990, 4, 919-928), cells were cultivated at a density that enables the recording of single cells (without visible connections to other cells).
Whole cell currents were measured with HEKA EPC-10 amplifiers using PatchMaster software or by using the high throughput QPatch platform (Sophion). Bath solution for all experiments contained (in mM): NaCl 137 mM, KCl 4 mM, CaCl2 1.8 mM, MgCl2 1 mM, HEPES 10 mM, D-Glucose 10 mM, pH (NaOH) 7.4. In some cases 0.005% cremophor was also added. Intracellular (pipette) solution contained: KCl 130 mM, MgCl2 1 mM, Mg-ATP 5 mM, HEPES 10 mM, EGTA 5 mM, pH 7.2. During experiments, cells and solutions were maintained at room temperature (19° C.-30° C.). For manual patch clamp recordings, cell culture dishes were placed on the dish holder of the microscope and continuously perfused (1 ml/min) with bath solution. After formation of a Gigaohm seal between the patch electrodes and the cell (-ipette resistance range: 2.5 MΩ-6.0 MΩ; seal resistance range:>1 GΩ) the cell membrane across the pipette tip was ruptured to assure electrical access to the cell interior (whole-cell patch-configuration). For experiments using the QPatch system, cells were transferred as suspension to the QPatch system in the bath solution and automated whole cell recordings were performed.
Cells were voltage clamped at a holding potential of −80 mV. For the analysis of test articles, GABA receptors were stimulated by 2 μM GABA after sequential pre-incubation of increasing concentrations of the test article. Pre-incubation duration was 30 s and the duration of the GABA stimulus was 2s. Test articles were dissolved in DMSO to form stock solutions (10 mM). Test articles were diluted to 0.01, 0.1, 1, and 10 μM in bath solution. All concentrations of test articles were tested on each cell. The relative percentage potentiation was defined as the peak amplitude in response to GABA EC20 in the presence of the test article divided by the peak amplitude in response to GABA EC20 alone, multiplied by 100. For Table 2. GABAA receptors α1β2γ2 and α4β3δ% efficacy: “A” 10-100, “B”>100-500, “C”>500; D indicates the data is not available or has not been determined.
A general note: Patch clamp records ionic current or voltage across a cell membrane.
As to `CC(=O)Nc1cnn(CC(=O)[C@H]2CC[C@H]3[C@@H]4CC[C@@H]5C[C@](C)(O)CC[C@]5(C)[C@H]4CC[C@]23C)c1` [Compound 171], the Emax at 10 µM fell in the range of 100 to 500%.
The same measure for `C[C@@]1(O)CC[C@@]2(C)[C@H](CC[C@@H]3[C@@H]2CC[C@]2(C)[C@@H](C(=O)Cn4cc(C(N)=O)cn4)CC[C@@H]32)C1` [Compound 167]: 100 to 500%.
The same measure for `CN(C)C(=O)c1cnn(CC(=O)[C@H]2CC[C@H]3[C@@H]4CC[C@@H]5C[C@](C)(O)CC[C@]5(C)[C@H]4CC[C@]23C)c1` [Compound 169]: 100 to 500%; for `COC[C@@]1(O)CC[C@@]2(C)[C@@H](CC[C@@H]3[C@@H]2CC[C@]2(C)[C@@H](C(=O)Cn4ccnc4)CC[C@@H]32)C1` [Compound 141]: over 500%.
The same measure for `COC[C@@]1(O)CC[C@@]2(C)[C@@H](CC[C@@H]3[C@@H]2CC[C@]2(C)[C@@H](C(=O)Cn4nc5ccc(Cl)cc5n4)CC[C@@H]32)C1` [Compound 165]: 100 to 500%.
With `CNC(=O)c1cnn(CC(=O)[C@H]2CC[C@H]3[C@@H]4CC[C@@H]5C[C@](C)(O)CC[C@]5(C)[C@H]4CC[C@]23C)c1` [Compound 168], the Emax at 10 µM is 100 to 500%.
With `C[C@@]1(O)CC[C@@]2(C)[C@@H](CC[C@@H]3[C@@H]2CC[C@]2(C)[C@@H](C(=O)Cn4ccnc4C#N)CC[C@@H]32)C1` [Compound 129] the figure was 100 to 500%.
The same measure for `COc1ccc2c(c1)nnn2CC(=O)[C@H]1CC[C@H]2[C@@H]3CC[C@H]4C[C@](C)(O)CC[C@]4(C)[C@H]3CC[C@]12C` [Compound 127]: 100 to 500%.
The same measure for `COC[C@@]1(O)CC[C@@]2(C)[C@@H](CC[C@@H]3[C@@H]2CC[C@]2(C)[C@@H](C(=O)Cn4cc(OC)cn4)CC[C@@H]32)C1` [Compound 158]: 100 to 500%.
As for `CCOc1cnn(CC(=O)[C@H]2CC[C@H]3[C@@H]4CC[C@@H]5C[C@](C)(O)CC[C@]5(C)[C@H]4CC[C@]23C)c1` [Compound 145], the Emax at 10 µM was over 500%.
With `C[C@@]1(O)CC[C@@]2(C)[C@@H](CC[C@@H]3[C@@H]2CC[C@]2(C)[C@@H](C(=O)Cn4cc(C(F)(F)F)cn4)CC[C@@H]32)C1` [Compound 131] the figure was 100 to 500%; with `COc1cnn(CC(=O)[C@H]2CC[C@H]3[C@@H]4CC[C@@H]5C[C@](C)(O)CC[C@]5(C)[C@H]4CC[C@]23C)c1` [Compound 166], 100 to 500%; with `COc1ccc2nn(CC(=O)[C@H]3CC[C@H]4[C@@H]5CC[C@H]6C[C@](C)(O)CC[C@]6(C)[C@H]5CC[C@]34C)nc2c1` [Compound 125], 100 to 500%.
The same measure for `C[C@@]1(O)CC[C@@]2(C)[C@@H](CC[C@@H]3[C@@H]2CC[C@]2(C)[C@@H](C(=O)Cn4cnc(C#N)c4)CC[C@@H]32)C1` [Compound 154]: 100 to 500%.
With `C[C@@]1(O)CC[C@@]2(C)[C@@H](CC[C@H]3[C@@H]4CC[C@H](C(=O)Cn5cc(C#N)cn5)[C@@]4(C)CC(=O)[C@@H]32)C1` [Compound 196] the figure was 100 to 500%.
Turning to `Cc1cn(CC(=O)[C@H]2CC[C@H]3[C@@H]4CC[C@@H]5C[C@](C)(O)CC[C@]5(C)[C@H]4CC[C@]23C)cn1` [Compound 172], the Emax at 10 µM was 100 to 500%.
With `Cc1cncn1CC(=O)[C@H]1CC[C@H]2[C@@H]3CC[C@H]4C[C@](C)(O)CC[C@]4(C)[C@H]3CC[C@]12C` [Compound 136] the figure was 100 to 500%; with `COc1cnn(CC(=O)[C@H]2CC[C@H]3[C@@H]4CC[C@H]5C[C@](C)(O)CC[C@]5(C)[C@H]4CC[C@]23C)c1` [Compound 148], 100 to 500%; with `CO[C@H]1C[C@@]2(C)[C@@H](CC[C@@H]3[C@@H]2CC[C@]2(C)[C@@H](C(=O)Cn4nccn4)CC[C@@H]32)C[C@]1(C)O` [Compound 42], 100 to 500%.
With `Cc1nccn1CC(=O)[C@H]1CC[C@H]2[C@@H]3CC[C@@H]4C[C@](C)(O)CC[C@]4(C)[C@H]3CC[C@]12C` [Compound 174] the figure was 100 to 500%.
